Experimental data as given in US6737383B1, “Herbicidal oxadiazolidines” (priority 1999, dated 2004).

Experiments:
rice = test: Test B flood test rice; assay type: in vivo, Oryza sativa
Procedure, shortened: (§1)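 Read-out is a visual response score from 0 (no effect) to 10 (complete control), assigned by comparison with untreated controls. Treatment was applied at the 2-leaf stage, and plants stayed in the greenhouse for twelve to sixteen days before scoring.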

giant foxtail = test: Test B pre/postemergence giant foxtail; assay type: in vivo, Setaria faberii
Procedure, shortened: (§2)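 Response is a visual 0-to-10 score relative to untreated plants, where 0 means no effect and 10 means complete control, taken twelve to sixteen days after application. Treatments went onto soil at planting and onto foliage of 1- to 4-leaf plants, using a surfactant-containing non-phytotoxic solvent.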

morningglory = test: Test B pre/postemergence morningglory; assay type: in vivo, Ipomoea hederacea
Procedure, shortened: as §2

soybean = test: Test B pre/postemergence soybean; assay type: in vivo, Glycine max
Procedure, shortened: as §2

rape = test: Test B pre/postemergence rape; assay type: in vivo, Brassica napus
Procedure, shortened: as §2

crabgrass = test: Test B pre/postemergence crabgrass; assay type: in vivo, Digitaria sanguinalis
Procedure, shortened: as §2

velvetleaf = test: Test B pre/postemergence velvetleaf; assay type: in vivo, Abutilon theophrasti
Procedure, shortened: as §2

pigweed = test: Test B pre/postemergence pigweed; assay type: in vivo, Amaranthus retroflexus
Procedure, shortened: as §2

bamyardgrass = test: Test B flood test barnyardgrass; assay type: in vivo, Echinochloa crus-galli
Procedure, shortened: as §1

bedstraw = test: Test B pre/postemergence bedstraw; assay type: in vivo, Galium aparine; details: Postemergence, Rate 250 g/ha; scale of 0 to 10, 0 is no effect, 10 is complete control
Procedure, shortened: as §2

wheat = test: Test B pre/postemergence wheat; assay type: in vivo, Triticum aestivum
Procedure, shortened: as §2

corn = test: Test B pre/postemergence corn; assay type: in vivo, Zea mays
Procedure, shortened: as §2

wild oat = test: Test B pre/postemergence wild oat; assay type: in vivo, Avena fatua
Procedure, shortened: as §2

smallflower flatsedge = test: Test B flood test smallflower flatsedge; assay type: in vivo, Cyperus difformis
Procedure, shortened: as §1

purple nutsedge = test: Test B pre/postemergence purple nutsedge; assay type: in vivo, Cyperus rotundus
Procedure, shortened: as §2

duck salad = test: Test B flood test duck salad; assay type: in vivo, Heteranthera limosa
Procedure, shortened: as §1

cocklebur = test: Test B pre/postemergence cocklebur; assay type: in vivo, Xanthium strumarium
Procedure, shortened: as §2

blackgrass = test: Test B pre/postemergence blackgrass; assay type: in vivo, Alopecurus myosuroides
Procedure, shortened: as §2

sugar beet = test: Test B pre/postemergence sugar beet; assay type: in vivo, Beta vulgaris
Procedure, shortened: as §2

surinam grass = test: Test B pre/postemergence surinam grass; assay type: in vivo, Brachiaria decumbens
Procedure, shortened: as §2

[1] = Rate 62 g/ha, flood test species, Pre-emergence, visual evaluation after twelve to sixteen days
[2] = Rate 125 g/ha, under heading Pre-emergence, flood test species, visual evaluation after twelve to sixteen days
[3] = Rate 250 g/ha, Pre-emergence (flood test species), scale 0 to 10, 0 is no effect, 10 is complete control
[4] = Rate 500 g/ha, Pre-emergence section of Table B, 0 to 10 scale (0 no effect, 10 complete control)
[5] = Postemergence, Rate 62 g/ha, scale 0 to 10, 0 is no effect, 10 is complete control
[6] = Postemergence, Rate 125 g/ha, scale of 0 to 10 where 0 is no effect and 10 is complete control
[7] = Postemergence, Rate 250 g/ha, scale of 0 to 10, 0 is no effect, 10 is complete control
[8] = Preemergence, Rate 62 g/ha, scale of 0 to 10 where 0 is no effect and 10 is complete control
[9] = Preemergence, Rate 125 g/ha, scale of 0 to 10 where 0 is no effect and 10 is complete control
[10] = Preemergence, Rate 250 g/ha, scale 0 to 10 (0 no effect, 10 complete control)
[11] = Preemergence, Rate 500 g/ha, scale of 0 to 10 where 0 is no effect and 10 is complete control
[12] = Rate 500 g/ha, Postemergence, scale 0 to 10, 0 is no effect, 10 is complete control

Structure (SMILES): CC[C@@H](C)n1c(=O)on(C(=O)N(c2ccc(Cl)cc2)C(C)C)c1=O [Compound 665]
- Plant response rating, Rice (0 to 10 scale, 0 is no effect, 10 is complete control) (rice; [1]): 0
- Rice plant response rating (0 to 10 scale, 0 is no effect, 10 is complete control) (rice; [2]): 0
- Rice plant response rating (rice; [3]): 0
- Rice plant response rating (rice; [4]): 0
- Plant response rating, Giant foxtail (giant foxtail; [5]): 2
- Giant foxtail plant response rating (giant foxtail; [6]): 4
- Giant foxtail plant response rating (giant foxtail; [7]): 8
- Giant foxtail plant response rating (giant foxtail; [8]): 9
- Giant foxtail plant response rating (giant foxtail; [9]): 10
- Plant response rating, Giant foxtail (giant foxtail; [10]): 10
- Plant response rating, Giant foxtail (giant foxtail; [11]): 10
- Giant foxtail plant response rating (giant foxtail; [12]): 9
- Plant response rating, Morningglory (morningglory; [5]): 4
- Morningglory plant response rating (morningglory; [6]): 6
- Morningglory plant response rating (morningglory; [7]): 6
- Morningglory plant response rating (morningglory; [8]): 0
- Morningglory plant response rating (morningglory; [9]): 0
- Plant response rating, Morningglory (morningglory; [10]): 0
- Plant response rating, Morningglory (morningglory; [11]): 4
- Morningglory plant response rating (morningglory; [12]): 8
- Plant response rating, Soybean (soybean; [5]): 2
- Soybean plant response rating (soybean; [6]): 2
- Soybean plant response rating (soybean; [8]): 0
- Soybean plant response rating (soybean; [9]): 0
- Plant response rating, Soybean (soybean; [10]): 0
- Plant response rating, Soybean (soybean; [11]): 2
- Plant response rating, Rape (rape; [5]): 0
- Rape plant response rating (rape; [6]): 0
- Rape plant response rating (rape; [8]): 4
- Rape plant response rating (rape; [9]): 6
- Plant response rating, Rape (rape; [10]): 8
- Plant response rating, Rape (rape; [11]): 9
- Rape plant response rating (rape; [12]): 4
- Plant response rating, Crabgrass (crabgrass; [5]): 1
- Crabgrass plant response rating (crabgrass; [6]): 7
- Crabgrass plant response rating (crabgrass; [7]): 9
- Crabgrass plant response rating (crabgrass; [8]): 6
- Crabgrass plant response rating (crabgrass; [9]): 8
- Plant response rating, Crabgrass (crabgrass; [10]): 9
- Plant response rating, Crabgrass (crabgrass; [11]): 10
- Crabgrass plant response rating (crabgrass; [12]): 9
- Plant response rating, Velvetleaf (velvetleaf; [5]): 0
- Velvetleaf plant response rating (velvetleaf; [6]): 2
- Velvetleaf plant response rating (velvetleaf; [8]): 0
- Velvetleaf plant response rating (velvetleaf; [9]): 0
- Plant response rating, Velvetleaf (velvetleaf; [10]): 4
- Plant response rating, Velvetleaf (velvetleaf; [11]): 7
- Velvetleaf plant response rating (velvetleaf; [12]): 7
- Plant response rating, Redroot pigweed (pigweed; [5]): 3
- Redroot pigweed plant response rating (pigweed; [6]): 3
- Redroot pigweed plant response rating (pigweed; [8]): 7
- Redroot pigweed plant response rating (pigweed; [9]): 8
- Plant response rating, Redroot pigweed (pigweed; [10]): 9
- Plant response rating, Redroot pigweed (pigweed; [11]): 10
- Redroot pigweed plant response rating (pigweed; [12]): 7
- Plant response rating, Barnyardgrass (0 to 10 scale, 0 is no effect, 10 is complete control) (bamyardgrass; [1]): 0
- Barnyardgrass plant response rating (0 to 10 scale, 0 is no effect, 10 is complete control) (bamyardgrass; [2]): 0
- Barnyardgrass plant response rating (bamyardgrass; [3]): 2
- Barnyardgrass plant response rating (bamyardgrass; [4]): 6
- Bedstraw plant response rating (bedstraw): 0
- Plant response rating, Wheat (wheat; [5]): 0
- Wheat plant response rating (wheat; [6]): 0
- Wheat plant response rating (wheat; [8]): 0
- Wheat plant response rating (wheat; [9]): 3
- Plant response rating, Wheat (wheat; [10]): 4
- Plant response rating, Wheat (wheat; [11]): 4
- Wheat plant response rating (wheat; [12]): 4
- Plant response rating, Corn (corn; [5]): 0
- Corn plant response rating (corn; [6]): 0
- Corn plant response rating (corn; [7]): 0
- Corn plant response rating (corn; [8]): 0
- Corn plant response rating (corn; [9]): 0
- Plant response rating, Corn (corn; [10]): 0
- Plant response rating, Corn (corn; [11]): 3
- Corn plant response rating (corn; [12]): 3
- Plant response rating, Wild oats (wild oat; [5]): 0
- Wild oats plant response rating (wild oat; [6]): 0
- Wild oats plant response rating (wild oat; [8]): 3
- Wild oats plant response rating (wild oat; [9]): 5
- Plant response rating, Wild oats (wild oat; [10]): 7
- Plant response rating, Wild oats (wild oat; [11]): 8
- Wild oats plant response rating (wild oat; [12]): 5
- Plant response rating, S. Flatsedge (0 to 10 scale, 0 is no effect, 10 is complete control) (smallflower flatsedge; [1]): 0
- S. Flatsedge plant response rating (0 to 10 scale, 0 is no effect, 10 is complete control) (smallflower flatsedge; [2]): 0
- S. Flatsedge plant response rating (smallflower flatsedge; [3]): 0
- S. Flatsedge plant response rating (smallflower flatsedge; [4]): 0
- Nutsedge plant response rating (purple nutsedge; [6]): 0
- Nutsedge plant response rating (purple nutsedge; [8]): 0
- Nutsedge plant response rating (purple nutsedge; [9]): 0
- Plant response rating, Nutsedge (purple nutsedge; [10]): 0
- Nutsedge plant response rating (purple nutsedge; [12]): 0
- Plant response rating, Ducksalad (0 to 10 scale, 0 is no effect, 10 is complete control) (duck salad; [1]): 0
- Ducksalad plant response rating (0 to 10 scale, 0 is no effect, 10 is complete control) (duck salad; [2]): 0
- Ducksalad plant response rating (duck salad; [3]): 0
- Ducksalad plant response rating (duck salad; [4]): 0
- Plant response rating, Cocklebur (cocklebur; [5]): 0
- Cocklebur plant response rating (cocklebur; [6]): 0
- Cocklebur plant response rating (cocklebur; [7]): 0
- Cocklebur plant response rating (cocklebur; [8]): 0
- Cocklebur plant response rating (cocklebur; [9]): 0
- Plant response rating, Cocklebur (cocklebur; [10]): 0
- Plant response rating, Cocklebur (cocklebur; [11]): 0
- Cocklebur plant response rating (cocklebur; [12]): 2
- Plant response rating, Blackgrass (blackgrass; [5]): 3
- Blackgrass plant response rating (blackgrass; [6]): 7
- Blackgrass plant response rating (blackgrass; [7]): 8
- Blackgrass plant response rating (blackgrass; [8]): 5
- Blackgrass plant response rating (blackgrass; [9]): 7
- Plant response rating, Blackgrass (blackgrass; [10]): 8
- Plant response rating, Blackgrass (blackgrass; [11]): 9
- Blackgrass plant response rating (blackgrass; [12]): 8
- Plant response rating, Sugarbeets (sugar beet; [5]): 0
- Sugarbeets plant response rating (sugar beet; [6]): 0
- Sugarbeets plant response rating (sugar beet; [8]): 0
- Sugarbeets plant response rating (sugar beet; [9]): 3
- Plant response rating, Sugarbeets (sugar beet; [10]): 6
- Plant response rating, Sugarbeets (sugar beet; [11]): 7
- Sugarbeets plant response rating (sugar beet; [12]): 4
- Plant response rating, B. signalgrass (surinam grass; [5]): 0
- Plant response rating, B. signalgrass (surinam grass; [6]): 0
- B. signalgrass plant response rating (surinam grass; [7]): 1
- B. signalgrass plant response rating (surinam grass; [8]): 1
- B. signalgrass plant response rating (surinam grass; [9]): 4
- Plant response rating, B. signalgrass (surinam grass; [10]): 8
- Plant response rating, B. signalgrass (surinam grass; [11]): 8
- B. signalgrass plant response rating (surinam grass; [12]): 5
